Test results taken from patent US6277834A, “Agents for relieving side effects of adrenal cortex hormone” (Senju Pharmaceutical Co. Ltd., priority 1998, dated 2001).
Counter-ions that a name gives are not always drawn.

Tests used:
[1] = tested on: croton oil-induced edema of the right auricles of the mice; assay: Croton oil-induced ear edema in mice (antiinflammatory effect); assay type: in vivo, ICR mice (10-week old male)
Method: A test was performed for examining antiinflammatory effect observed by concurrent use of the present compound and an adrenocortical hormone. In addition, dose-response test was carried out for the adrenocortical hormone.
(§1) 0.012% betamethasone valerate (dissolved in methanol).
0.5% EPC-K (dissolved in methanol).
Twenty μl of croton oil (6%) dissolved in acetone was applied on the outer surface of the right auricles of the mice to induce edema. Fifteen minutes later, 20 μl of one of the test materials was applied to each of the right auricles.
Four hours after the application of the test materials, the thickness of the right auricles of the mice were measured using a dial thickness gauge and edema rates were determined by comparing their thickness with that before induction.

[2] = Body weight, thymus and spleen weight in hairless mice after repeated topical application (reduction of side effects of an adrenocortical hormone); conditions: EPC-K (0.5%) administered concurrently with betamethasone valerate (0.012%), two weeks
Method: A test was carried out to examine the effect of the present compound to reduce side effects of an adrenocortical hormone.
as §1
0.012% betamethasone valerate +0.5% EPC-K (dissolved in methanol).
10-week old female HR-1 hairless mice purchased from SLC Japan were used for the test. One hundred μl of the test materials were applied to the respective mice on the whole area of their back skin. This procedure was repeated once a day for two weeks, and then the body weight and the weight of the thymus and the spleen were determined.

Acute toxicity (LD50) = conditions: in vivo, rat
[3] = Table 4, 4 h after 20 μl topical, 0.5% EPC-K, 0.012% betamethasone valerate, or both, mean ± S.D. (n = 23-27), methanol 116.1 ± 23.3
[4] = Table 4, edema inhibition 4 h after 20 μl topical, 0.5% EPC-K, 0.012% betamethasone valerate, or both, n = 23-27

CCCCC(=O)O[C@]1(C(=O)CO)[C@@H](C)C[C@H]2[C@@H]3CCC4=CC(=O)C=C[C@]4(C)[C@@]3(F)[C@@H](O)C[C@@]21C [Betamethasone valerate, betamethasone valerate]
Edema rate(%) [1, 3]: 87.3 ± 21.7% | Inhibition rate(%) [1, 4]: 27.9% | Edema rate(%) ([1]; Table 5 dose-response, 0.012% betamethasone valerate, 4 h, mean ± S.D. (n = 8-9), methanol 138.8 ± 18.5): 101.6 ± 15.3% | Inhibition rate(%) ([1]; Table 5 dose-response, 0.012% betamethasone valerate, 4 h, n = 8-9): 26.8% | Edema rate(%) ([1]; Table 5 dose-response, 0.040% betamethasone valerate, 4 h, mean ± S.D. (n = 8-9), methanol 138.8 ± 18.5): 86.5 ± 30.3% | Inhibition rate(%) ([1]; Table 5 dose-response, 0.040% betamethasone valerate, 4 h, n = 8-9): 37.7% | Edema rate(%) ([1]; Table 5 dose-response, 0.12% betamethasone valerate, 4 h, mean ± S.D. (n = 8-9), methanol 138.8 ± 18.5): 52.8 ± 13.3% | Inhibition rate(%) ([1]; Table 5 dose-response, 0.12% betamethasone valerate, 4 h, n = 8-9): 62.0% | concentration of betamethasone valerate that would give an effect comparable to 0.012% betamethasone valerate plus 0.5% EPC-K ([1]; calculated from the dose-response test (Table 5)): 0.088%

Cc1c(C)c2c(c(C)c1OP(=O)(O)OC1=C(O)[C@@H]([C@@H](O)CO)OC1=O)CCC(C)(CCCC(C)CCCC(C)CCCC(C)C)O2 (mixture of isomers) [EPC-K, potassium salt of phosphodiester of L-ascorbic acid and DL-α-tocopherol]
atrophy of spleen (by betamethasone valerate) [2]: suppressed | atrophy of thymus (by betamethasone valerate) [2]: suppressed | body weight reduction (by betamethasone valerate) [2]: suppressed | Edema rate(%) [1, 3]: 109.1 ± 26.3% | Inhibition rate(%) [1, 4]: 6.0% | LD50 (Acute toxicity (LD50); iv): > 100 mg/kg | LD50 (Acute toxicity (LD50); po): > 5000 mg/kg
